System: human KRAS^G12C NSCLC NCI-H2122 xenograft tumors
Experiment: NCI-H2122 xenograft, Compound A plus RMC-6291 combination
Assay type: in vivo
Details: immune-deficient mice; repeated daily oral administration
Description: The antitumor activity of Compound A in combination with RMC-6291 was evaluated using immune-deficient mice bearing human KRAS^G12C NSCLC NCI-H2122 xenograft tumors.

CCn1c(-c2cccnc2[C@H](C)OC)c2c3cc(ccc31)N1CCO[C@@H](C[C@H](NC(=O)[C@H](C(C)C)N(C)C(=O)C3(F)CCN(C(=O)C#CC(C)(C)N(C)C)CC3)C(=O)N3CCC[C@H](N3)C(=O)OCC(C)(C)C2)C1 [RMC-6291]
Mean tumor regression: mean tumor regressions were not achieved

From patent US20250345328A1, “METHODS OF TREATING A RAS RELATED DISEASE OR DISORDER” (Revolution Medicines, Inc., priority 2023, published 2025)
